In patent EP4588921A1, “FREE BASE CRYSTAL FORM OF POLYCYCLIC COMPOUND OF NITROGEN-CONTAINING HETEROCYCLE, AND PREPARATION METHOD THEREFOR” (Jiangsu Hansoh Pharmaceutical Group Co., Ltd., priority 2022, dated 2024):

What was measured:
in vivo = settings: male, SD, rat, po, 5 mg/kg
Procedure: SD rats were used as test animals to study the pharmacokinetic behaviour of the compounds of the present invention in rat (plasma) after oral administration at a dose of 5 mg/kg.
The example compound of the present invention, made in house.
Oral administration drug preparation: 20%HP-β-CD in Water
HP-β-CD powder (20 g) was weighed and dissolved in purified water (100 mL), and the mixture was homogeneously mixed by vortex and subjected to ultrasound treatment to afford a clear solution.
The example compound was weighed and added to a 20 mL glass bottle, the solution was added and the mixture was subjected to ultrasound treatment for 10 minutes to afford a colourless clear solution with a concentration of 0.5 mg/mL.
The brain tissues were rinsed with pre-cooled PBS, wiped dry, weighed, and stored at -80°C.
• 1) Acetonitrile (160 µL) was added to plasma sample (40 µL) for precipitation, and the mixture was mixed and centrifuged at 3500 × g for 5 to 20 minutes. • 2) The treated supernatant solution was taken and subjected to LC/MS/MS to analyse the concentrations of the test compounds. LC/MS/MS analysis instrument: AB Sciex API 4000 Qtrap.
• Liquid phase conditions: Shimadzu LC-20AD pump • Chromatographic column: Agilent ZORBAX XDB-C18 (50×2.1 mm, 3.5 µm) mobile phase: liquid A: 0.1% aqueous formic acid solution, liquid B: acetonitrile • Flow rate: 0.4 mL/min • Elution time: 0-4.0 min, the eluent is as follows:
The main pharmacokinetic parameters were calculated using WinNonlin 6.1.

CYP450 1A2 = biological target: T1, CYP450 1A2 (Homo sapiens, UniProt P05177); assay: CYP enzyme single point inhibition test, human liver microsomes; type: in vitro ADME; settings: 20 min incubation
T1 construct: Human liver microsome incubation system was used; from tissue; host or cells: human liver microsomes
T1 sequence (P05177 1-516): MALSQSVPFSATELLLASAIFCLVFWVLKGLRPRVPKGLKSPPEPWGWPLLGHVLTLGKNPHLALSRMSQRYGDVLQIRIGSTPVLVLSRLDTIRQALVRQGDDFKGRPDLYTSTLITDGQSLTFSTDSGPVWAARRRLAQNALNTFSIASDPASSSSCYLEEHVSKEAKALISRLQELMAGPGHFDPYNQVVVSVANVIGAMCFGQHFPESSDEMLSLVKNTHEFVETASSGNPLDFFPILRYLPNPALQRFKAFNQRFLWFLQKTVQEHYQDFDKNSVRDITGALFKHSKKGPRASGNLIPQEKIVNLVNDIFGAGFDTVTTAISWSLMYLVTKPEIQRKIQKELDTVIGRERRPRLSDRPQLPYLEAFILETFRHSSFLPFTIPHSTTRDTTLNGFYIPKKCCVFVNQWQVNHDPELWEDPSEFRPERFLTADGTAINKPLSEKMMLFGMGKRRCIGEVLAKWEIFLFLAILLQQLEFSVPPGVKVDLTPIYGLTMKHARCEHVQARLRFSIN
Procedure: (§1) Human liver microsome incubation system was used, and the single point method was used to quickly predict the inhibition of compounds on CYP450 enzyme subtypes.
(§2) NADPH (reduced nicotinamide adenine dinucleotide phosphate) was weighed and added to 100 mM phosphate buffer, with the final concentration being 2.5 mM.
(§3) Formulation of the reaction liquid of the test compound: The test example compound was weighed, diluted to 10 mM with DMSO, and diluted to 100 µM with 100 mM phosphate buffer.
(§4) • 1. Liver microsomes (40 µL), substrate (10 µL), and test compound (10 µL) were added to a 96-well plate and the mixture was pre-incubated for 3 min. • 2. NADPH (40 µL) was added. • 3. At 20 min, acetonitrile stop solution containing internal standard (300 µL) was added. • 4. The mixture was centrifuged and the sample was loaded.

CYP450 2C19 = biological target: T2, CYP450 2C19 (Homo sapiens, UniProt P33261); assay: as above; type: in vitro ADME; settings: 20 min incubation
T2 construct: Human liver microsome incubation system was used; from tissue; host or cells: human liver microsomes
T2 sequence (P33261 whole entry): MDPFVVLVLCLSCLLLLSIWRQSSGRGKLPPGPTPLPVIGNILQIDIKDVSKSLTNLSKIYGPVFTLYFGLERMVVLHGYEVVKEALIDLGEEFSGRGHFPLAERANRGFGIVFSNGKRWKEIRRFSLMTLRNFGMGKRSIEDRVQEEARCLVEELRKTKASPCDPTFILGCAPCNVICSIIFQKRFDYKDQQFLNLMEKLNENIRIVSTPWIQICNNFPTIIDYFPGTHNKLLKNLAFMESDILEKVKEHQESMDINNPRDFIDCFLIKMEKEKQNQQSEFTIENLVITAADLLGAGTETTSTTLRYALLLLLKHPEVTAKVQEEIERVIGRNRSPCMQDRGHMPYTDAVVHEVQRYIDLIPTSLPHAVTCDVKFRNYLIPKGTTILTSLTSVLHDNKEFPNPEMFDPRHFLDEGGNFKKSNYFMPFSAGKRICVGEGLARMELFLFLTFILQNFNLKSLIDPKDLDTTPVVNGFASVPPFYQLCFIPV
Procedure: as §1, §2, §3, §4

CYP450 2D6 = biological target: T3, CYP450 2D6 (Homo sapiens, UniProt P10635); assay: as above; type: in vitro ADME; settings: 20 min incubation
T3 construct: Human liver microsome incubation system was used; from tissue; host or cells: human liver microsomes
T3 sequence (P10635 whole entry): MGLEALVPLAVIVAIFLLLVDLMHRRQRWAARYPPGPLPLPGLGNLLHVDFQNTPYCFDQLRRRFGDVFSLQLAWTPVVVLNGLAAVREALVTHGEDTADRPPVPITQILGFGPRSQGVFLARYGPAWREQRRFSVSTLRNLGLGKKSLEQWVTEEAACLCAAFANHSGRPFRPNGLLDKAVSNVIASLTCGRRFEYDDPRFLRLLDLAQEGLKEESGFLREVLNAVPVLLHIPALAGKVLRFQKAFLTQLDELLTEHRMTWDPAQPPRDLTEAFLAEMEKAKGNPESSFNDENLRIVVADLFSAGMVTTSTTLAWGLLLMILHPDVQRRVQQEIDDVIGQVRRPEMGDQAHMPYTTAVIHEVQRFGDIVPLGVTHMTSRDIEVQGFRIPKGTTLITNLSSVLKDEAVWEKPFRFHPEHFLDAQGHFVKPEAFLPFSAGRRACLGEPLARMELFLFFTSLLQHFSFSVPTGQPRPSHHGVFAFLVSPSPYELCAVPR
Procedure: as §1, §2, §3, §4

CYP450 2C9 = biological target: T4, CYP450 2C9 (Homo sapiens, UniProt P11712); assay: as above; type: in vitro ADME; settings: 20 min incubation
T4 construct: Human liver microsome incubation system was used; from tissue; host or cells: human liver microsomes
T4 sequence (P11712 whole entry): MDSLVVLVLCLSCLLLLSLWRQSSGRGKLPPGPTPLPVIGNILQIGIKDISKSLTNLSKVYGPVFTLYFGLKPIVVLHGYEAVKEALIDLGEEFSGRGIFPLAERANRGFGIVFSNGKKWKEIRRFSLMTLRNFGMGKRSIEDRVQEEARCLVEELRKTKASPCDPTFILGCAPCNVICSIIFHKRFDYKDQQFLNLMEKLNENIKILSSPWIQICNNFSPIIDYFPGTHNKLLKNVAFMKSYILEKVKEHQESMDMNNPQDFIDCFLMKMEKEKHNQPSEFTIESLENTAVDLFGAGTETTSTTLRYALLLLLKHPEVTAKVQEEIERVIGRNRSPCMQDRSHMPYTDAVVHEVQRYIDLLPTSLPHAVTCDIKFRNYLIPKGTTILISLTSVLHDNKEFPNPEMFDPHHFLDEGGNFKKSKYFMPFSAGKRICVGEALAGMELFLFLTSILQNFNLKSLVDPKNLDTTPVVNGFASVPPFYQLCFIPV
Procedure: as §1, §2, §3, §4

human OX1R = biological target: T5, human OX1R (Homo sapiens, UniProt O43613); assay: Calcium current (FLIPR) in cells stably expressing OX1 receptor; type: cell-based; settings: CHO-K1/human OX1R cells; agonist OX-A at EC80; FLIPR Tetra
T5 construct: expressed in transfected cells; host or cells: CHO-K1
T5 sequence (O43613 1-425): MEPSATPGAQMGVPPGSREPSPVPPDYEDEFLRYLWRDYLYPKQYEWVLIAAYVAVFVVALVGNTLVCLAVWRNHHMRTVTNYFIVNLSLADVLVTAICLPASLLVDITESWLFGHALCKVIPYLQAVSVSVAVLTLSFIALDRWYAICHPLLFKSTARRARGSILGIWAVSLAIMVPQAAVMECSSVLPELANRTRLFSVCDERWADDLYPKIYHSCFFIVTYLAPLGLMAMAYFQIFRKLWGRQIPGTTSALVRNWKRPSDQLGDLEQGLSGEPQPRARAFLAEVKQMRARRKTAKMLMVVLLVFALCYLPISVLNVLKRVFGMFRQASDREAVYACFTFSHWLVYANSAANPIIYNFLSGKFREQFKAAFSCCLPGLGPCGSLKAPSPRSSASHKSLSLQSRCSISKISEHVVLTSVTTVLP
Procedure: (§5) Determination of the effect of the compounds of the present invention on calcium current in cells stably expressing OX1 and OX2 receptors 1. Experimental objective: The inhibitory effect of the compounds on calcium current activity in CHO-K1/human OX1R and CHO-K1/human OX2R cells was detected. 2. […] 3. […] The IC50 of the positive compounds and test compounds was determined. 4. Experimental data processing method: FLIPR Tetra was used to read and collect the fluorescence signal value (RFU). […] 5.

human OX2R = biological target: T6, human OX2R (Homo sapiens, UniProt O43614); assay: Calcium current (FLIPR) in cells stably expressing OX2 receptor; type: cell-based; settings: for IC50: CHO-K1/human OX2R cells, agonist OX-B at EC80, FLIPR Tetra; for Select fold: OX1R IC50 over OX2R IC50
T6 construct: expressed in transfected cells; host or cells: CHO-K1
T6 sequence (O43614 1-444): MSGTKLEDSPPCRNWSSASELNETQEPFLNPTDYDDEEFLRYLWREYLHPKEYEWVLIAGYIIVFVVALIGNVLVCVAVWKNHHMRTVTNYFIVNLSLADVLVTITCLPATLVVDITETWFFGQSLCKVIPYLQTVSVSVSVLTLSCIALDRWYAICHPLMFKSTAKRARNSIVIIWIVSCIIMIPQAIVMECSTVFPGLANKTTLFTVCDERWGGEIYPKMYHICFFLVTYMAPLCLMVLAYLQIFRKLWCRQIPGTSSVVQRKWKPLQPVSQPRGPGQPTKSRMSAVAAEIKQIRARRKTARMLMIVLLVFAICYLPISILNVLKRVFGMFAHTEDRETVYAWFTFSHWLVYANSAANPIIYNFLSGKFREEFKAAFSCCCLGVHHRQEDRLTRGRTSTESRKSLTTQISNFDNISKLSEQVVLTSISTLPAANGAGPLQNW
Procedure: as §5

SMILES | AUC(0-inf) (in vivo) [µg·h/mL] | Cmax (in vivo) [µg/mL] | Tmax (in vivo) [min] | IC50 (CYP450 1A2) [µM] | IC50 (CYP450 2C19) [µM] | IC50 (CYP450 2D6) [µM] | IC50 (CYP450 2C9) [µM] | IC50 (human OX1R) [µM] | IC50 (human OX2R) [µM] | Select fold (human OX2R)
CC(C)(O)c1nc(N2C[C@H]3CN(C(=O)c4c(F)cccc4-c4ncccn4)C[C@H]3C2)ncc1F [Compound 9, ((3aR,6aS)-5-(5-fluoro-4-(2-hydroxyprop-2-yl)pyrimidin-2-yl)hexahydropyrrolo[3,4-c]pyrrol-2(1H)-yl)(2-fluoro-6-(pyrimidin-2-yl)phenyl)methanone] | 0.13 | 0.124 | 36 | > 100 | 82.7 | > 100 | > 100 | 1.06 | 0.0087 | 122
Cc1nc(N2C[C@H]3CN(C(=O)c4cccc(F)c4-n4nccn4)C[C@H]3C2)nc(C(C)(C)O)c1F [Compound 11, (3-fluoro-2-(2H-1,2,3-triazol-2-yl)phenyl)((cis)-5-(5-fluoro-4-(2-hydroxypropan-2-yl)-6-methylpyrimidin-2-yl)hexahydropyrrolo [3,4-c]pyrrol-2(1H)-yl)methanone] | 0.821 | 0.394 | 15 | > 100 | 82.7 | > 100 | > 100 | 1.32 | 0.027 | 49
